Reference: patent US20130045962A1, “PEPTIDE DEFORMYLASE INHIBITORS” (priority 2007, published 2013)
In brackets after ≈: the same amount, converted by molar mass. Several values for one entry are separate records, joined by “and”; a condition that tells them apart may be missing. Identical values can stand only once. Like-named read-outs stand apart in the source and are kept apart here.

Experiments:
Experiment in all cases: Antimicrobial activity assay (broth microdilution MIC)
Type in all cases: cell-based
[1] = tested on: Escherichia coli 120 (AcrAB−); conditions: for MIC: Escherichia coli; for MIC E. coli 120 AcrAB—: individual results, panel run 2 times
Protocol: (§1) Whole-cell antimicrobial activity was determined by broth microdilution using the Clinical and Laboratory Standards Institute (CLSI, formerly NCCLS) recommended methodology (NCCLS Document M7-A6, “Methods for Dilution Susceptibility Tests for Bacteria that Grow Aerobically Approved Standard Sixth Edition”, 2003). Compounds were tested in serial two-fold dilutions ranging from 64 to 0.06 μg/mL. A panel of 12 strains was evaluated in the assay. This panel consisted of the following laboratory strains: Staphylococcus aureus Oxford, Staphylococcus aureus WCUH29, Enterococcus faecalis I, Enterococcus faecalis 7, Haemophilus influenzae Q1, Haemophilus influenzae NEMC1, Moraxella catarrhalis 1502, Streptococcus pneumoniae 1629, Streptococcus pneumoniae N1387, Streptococcus pneumoniae Ery2, Escherichia coli 7623 (AcrABEFD+) and Escherichia coli 120 (AcrAB−). The minimum inhibitory concentration (MIC) was determined as the lowest concentration of compound that inhibited visible growth. A mirror reader was used to assist in determining the MIC endpoint.

[2] = tested on: Haemophilus influenzae Q1; conditions: for MIC: Haemophilus influenzae, read-out: MIC H. influenzae Q1; for MIC H. influenzae Q1: individual results
Protocol: as §1

[3] = tested on: Haemophilus influenzae NEMC1; conditions: for MIC: Haemophilus influenzae, read-out: MIC H. influenzae NEMC1
Protocol: as §1

[4] = tested on: Escherichia coli 7623 (AcrABEFD+); conditions: for MIC: Escherichia coli, read-out: MIC E. coli 7623 AcrABEFD+
Protocol: as §1

[5] = tested on: Streptococcus pneumoniae N1387; conditions: median of all results obtained, read-out: MIC S. pneumoniae N1387
Protocol: as §1

[6] = tested on: Enterococcus faecalis I; conditions: median of all results obtained, read-out: MIC E. faecalis I
Protocol: as §1

[7] = tested on: Staphylococcus aureus Oxford; conditions: median of all results obtained, read-out: MIC S. aureus Oxford
Protocol: as §1

[8] = tested on: Enterococcus faecalis 7; conditions: median of all results obtained, read-out: MIC E. faecalis 7
Protocol: as §1

[9] = tested on: Streptococcus pneumoniae 1629; conditions: median of all results obtained, read-out: MIC S. pneumoniae 1629
Protocol: as §1

[10] = Q1, individual results, panel run 2 times
[11] = NEMC1, individual results, panel run 2 times
[12] = individual results, panel run 2 times
[13] = read-out: MIC E. coli 120 AcrAB—, median of all results obtained
[14] = Q1, median of all results obtained
[15] = NEMC1, median of all results obtained

SMILES | MIC [2, 10] [mg/L] | MIC H. influenzae Q1 ([2]; panel run 2 times) [mg/L] | MIC [3, 11] [mg/L] | MIC E. coli 7623 AcrABEFD+ [4, 12] | MIC [1, 13] [mg/L] | MIC [2, 14] [mg/L] | MIC [3, 15] [mg/L] | MIC ([4]; median of all results obtained) [mg/L] | MIC E. coli 120 AcrAB— [1] | further results
CN1CCN(c2nc(Cl)nc(NNC(=O)[C@H](CC3CCCC3)CN(O)C=O)c2F)CC12CC2 [Example 172, [(2R)-3-{2-[2-Chloro-5-fluoro-6-(4-methyl-4,7-diazaspiro[2.5]oct-7-yl)-4-pyrimidinyl]hydrazino}-2-(cyclopentylmethyl)-3-oxopropyl]hydroxyformamide] | 1 (≈ 2.07 µM) | 2 (≈ 4.13 µM) | 1 (≈ 2.07 µM) | 4 mg/L and 16 mg/L |  |  |  |  |  | MIC ([1]; read-out: MIC E. coli 120 AcrAB—, individual results, panel run 2 times): 0.125 to 0.5 mg/L (≈ 0.258 to 1.03 µM); MIC H. influenzae NEMC1 [3, 12]: 2 mg/L (≈ 4.13 µM)
C[C@@H]1CN(C)CCN1c1nc(Cl)nc(NNC(=O)[C@H](CC2CCCC2)CN(O)C=O)c1F [Example 63, [(2R)-3-(2-{2-Chloro-6-[(2R)-2,4-dimethyl-1-piperazinyl]-5-fluoro-4-pyrimidinyl}hydrazino)-2-(cyclopentylmethyl)-3-oxopropyl]hydroxyformamide] |  |  |  |  | 0.25 (≈ 0.53 µM) | 0.25 (≈ 0.53 µM) | 0.5 (≈ 1.06 µM) | 4 (≈ 8.48 µM) |  | 
Cc1nc(NNC(=O)[C@H](CC2CCCC2)CN(O)C=O)c(F)c(N2CCN(C)C3(CC3)C2)n1 [Example 275, ((2R)-2-(Cyclopentylmethyl)-3-{2-[5-fluoro-2-methyl-6-(4-methyl-4,7-diazaspiro[2.5]oct-7-yl)-4-pyrimidinyl]hydrazino}-3-oxopropyl)hydroxyformamide] | 0.5 (≈ 1.08 µM) | 1 (≈ 2.16 µM) | 1 (≈ 2.16 µM) | 4 mg/L and 16 mg/L |  |  |  |  | ≦0.06, μg/mL and 0.5 μg/mL | 
Cc1nc(NNC(=O)[C@H](CC2CCCC2)CN(O)C=O)c(F)c(N2CCN3CCOC[C@@H]3C2)n1 [Example 24, [(2R)-2-(Cyclopentylmethyl)-3-(2-{5-fluoro-6-[(9aS)-hexahydropyrazino[2,1-c][1,4]oxazin-8(1H)-yl]-2-methyl-4-pyrimidinyl}hydrazino)-3-oxopropyl]hydroxyformamide] |  |  |  |  | 0.188 (≈ 0.391 µM) | 0.5 (≈ 1.04 µM) | 1 (≈ 2.09 µM) | 16 (≈ 33.4 µM) |  | MIC [5]: 0.5 mg/L (≈ 1.04 µM); MIC [6]: 48 mg/L (≈ 100 µM); MIC [7]: 2 mg/L (≈ 4.17 µM); MIC [8]: 32 mg/L (≈ 66.7 µM); MIC [9]: 0.75 mg/L (≈ 1.56 µM)
Cc1nc(NNC(=O)[C@H](CC2CCCC2)CN(O)C=O)c(F)c(N2CCN(C)C[C@H]2C)n1 [Example 109, [(2R)-2-(Cyclopentylmethyl)-3-(2-{6-[(2R)-2,4-dimethyl-1-piperazinyl]-5-fluoro-2-methyl-4-pyrimidinyl}hydrazino)-3-oxopropyl]hydroxyformamide] | 0.5 (≈ 1.11 µM) |  | 1 (≈ 2.21 µM) |  |  |  |  |  | ≦0.06, μg/mL and 0.125 μg/mL | MIC [4, 12]: 8 mg/L (≈ 17.7 µM)
